According to patent US9051290B2, “Biaryl phosphodiesterase inhibitors” (LEO PHARMA A/S, priority 2010, dated 2015):

What follows are compounds tested against Human recombinant PDE4 (Genbank accession no NM—006203) (Homo sapiens, UniProt Q08499) (assay: PDE4 assay (SPA, cleavage of cAMP)). Details: 1 hour incubation, test compound up to 10 μM, cAMP 1×10^−5M, read-out: PDE4 IC50 range.
Chain of Human recombinant PDE4 (Genbank accession no NM—006203) (Q08499 1-673 isoform Q08499-2): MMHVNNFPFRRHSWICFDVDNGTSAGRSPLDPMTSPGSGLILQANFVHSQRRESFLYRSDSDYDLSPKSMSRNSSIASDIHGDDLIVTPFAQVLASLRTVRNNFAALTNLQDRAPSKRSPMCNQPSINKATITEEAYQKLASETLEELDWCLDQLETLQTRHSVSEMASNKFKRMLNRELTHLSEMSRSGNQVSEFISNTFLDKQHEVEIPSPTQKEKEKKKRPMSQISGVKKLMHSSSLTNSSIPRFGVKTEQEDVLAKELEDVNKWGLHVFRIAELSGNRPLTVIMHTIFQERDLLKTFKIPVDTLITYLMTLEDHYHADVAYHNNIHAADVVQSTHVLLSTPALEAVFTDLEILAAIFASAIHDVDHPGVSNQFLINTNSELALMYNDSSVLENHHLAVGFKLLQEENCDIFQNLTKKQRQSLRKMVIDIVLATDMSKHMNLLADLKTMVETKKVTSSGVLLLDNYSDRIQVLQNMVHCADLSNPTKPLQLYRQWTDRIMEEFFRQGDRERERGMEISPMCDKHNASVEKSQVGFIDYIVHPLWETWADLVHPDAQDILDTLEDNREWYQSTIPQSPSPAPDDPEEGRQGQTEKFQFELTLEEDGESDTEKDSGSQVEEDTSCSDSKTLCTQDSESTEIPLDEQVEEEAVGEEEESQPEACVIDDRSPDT
Assay type: biochemical
Experimental: Human recombinant PDE4 (Genbank accession no NM_006203) was incubated for 1 hour with the test compound at concentrations up to 10 μM, with cAMP (1×10^−5M), and with a low amount (0.021 MBq) of radioactively labelled cAMP. At the end of the incubation, the cleavage of the substrate was evaluated by the binding of the AMP product to SPA beads, which generate chemoluminescence when bound to the radioactive tracer. The AMP product inhibited the binding of the radioactive tracer to the beads, and the luminescent signal was competed.
The results were calculated as the molar concentrations resulting in 50% inhibition of the substrate cleavage compared to controls samples, and are expressed as a range of IC50 (M).
The compounds of the present invention were tested in the PDE4 assay.
An IC50 of under 100 nM was found for `COc1ccc(-c2cccc3c2CCC3=O)c(OCC2(CNC(=O)C(C)C)CC2)c1OC` [Compound 183] in this work.
An IC50 of under 100 nM was found for `CCCC(=O)NCC1(COc2c(-c3cccc4c3CCC4=O)ccc(OC)c2OC)CC1` [Compound 184, N-{1-[2,3-Dimethoxy-6-(1-oxo-indan-4-yl)-phenoxymethyl]-cyclopropylmethyl}-butyramide] in this work.
An IC50 of under 100 nM was found for `COc1ccc(-c2cccc3c2CCC3=O)c(OCC2(CNC(C)=O)CC2)c1OC` [Compound 185, N-{1-[2,3-Dimethoxy-6-(1-oxo-indan-4-yl)-phenoxymethyl]-cyclopropylmethyl}-acetamide] in this work.
An IC50 of under 100 nM was found for `CCOC(=O)NCC1(COc2c(-c3cccc4c3CCC4=O)ccc(OC)c2OC)CC1` [Compound 186, {1-[2,3-Dimethoxy-6-(1-oxo-indan-4-yl)-phenoxymethyl]-cyclopropylmethyl}-carbamic Acid Ethyl Ester] in this work.
An IC50 of under 100 nM was found for `COc1ccc(-c2cccc3c2CCC3=O)c(OCC2(CNC(=O)OC(C)C)CC2)c1OC` [Compound 187, {1-[2,3-Dimethoxy-6-(1-oxo-indan-4-yl)-phenoxymethyl]-cyclopropylmethyl}-carbamic Acid Isopropyl Ester] in this work.
An IC50 of under 100 nM was found for `COCCOC(=O)NCC1(COc2c(-c3cccc4c3CCC4=O)ccc(OC)c2OC)CC1` [Compound 188, {1-[2,3-Dimethoxy-6-(1-oxo-indan-4-yl)-phenoxymethyl]-cyclopropylmethyl}-carbamic acid 2-methoxy-ethyl Ester] in this work.
An IC50 of under 100 nM was found for `CCNC(=O)OCC1(COc2c(-c3cccc4c3CCC4=O)ccc(OC)c2OC)COC1` [Compound 189, Ethyl-carbamic acid 3-[2,3-dimethoxy-6-(1-oxo-indan-4-yl)-phenoxymethyl]-oxetan-3-ylmethyl ester] in this work.
An IC50 of under 100 nM was found for `COCC1(COc2c(-c3cccc4c3CCC4=O)ccc(OC)c2OC)COC1` [Compound 190, 4-[3,4-Dimethoxy-2-(3-methoxymethyl-oxetan-3-ylmethoxy)-phenyl]-indan-1-one] in this work.
An IC50 of under 100 nM was found for `COc1ccc(-c2cccc3c2CCC3=O)c(OCC2(CNC(C)=O)COC2)c1OC` [Compound 192, N-{3-[2,3-Dimethoxy-6-(1-oxo-indan-4-yl)-phenoxymethyl]-oxetan-3-ylmethyl}-acetamide] in this work.
An IC50 of under 100 nM was found for `COc1ccc(-c2cccc3c2CCC3=O)c(OCC2(CNC(=O)C(C)C)COC2)c1OC` [Compound 193, N-{3-[2,3-Dimethoxy-6-(1-oxo-indan-4-yl)-phenoxymethyl]-oxetan-3-ylmethyl}-isobutyramide] in this work.
An IC50 of under 100 nM was found for `CCCC(=O)NCC1(COc2c(-c3cccc4c3CCC4=O)ccc(OC)c2OC)COC1` [Compound 194, N-{3-[2,3-Dimethoxy-6-(1-oxo-indan-4-yl)-phenoxymethyl]-oxetan-3-ylmethyl}-butyramide] in this work.
An IC50 of under 100 nM was found for `COCC(=O)NCC1(COc2c(-c3cccc4c3CCC4=O)ccc(OC)c2OC)COC1` [Compound 195, N-{3-[2,3-Dimethoxy-6-(1-oxo-indan-4-yl)-phenoxymethyl]-oxetan-3-ylmethyl}-2-methoxy-acetamide] in this work.
An IC50 of under 100 nM was found for `CCOC(=O)NCC1(COc2c(-c3cccc4c3CCC4=O)ccc(OC)c2OC)COC1` [Compound 196, {3-[2,3-Dimethoxy-6-(1-oxo-indan-4-yl)-phenoxymethyl]-oxetan-3-ylmethyl}-carbamic acid ethyl ester] in this work.
An IC50 of under 100 nM was found for `COc1ccc(-c2cccc3c2CCC3=O)c(OCC2(CNC(=O)OC(C)C)COC2)c1OC` [Compound 197, {3-[2,3-Dimethoxy-6-(1-oxo-indan-4-yl)-phenoxymethyl]-oxetan-3-ylmethyl}-carbamic acid isopropyl ester] in this work.
An IC50 of under 100 nM was found for `COCCOC(=O)NCC1(COc2c(-c3cccc4c3CCC4=O)ccc(OC)c2OC)COC1` [Compound 198, {3-[2,3-Dimethoxy-6-(1-oxo-indan-4-yl)-phenoxymethyl]-oxetan-3-ylmethyl}-carbamic acid 2-methoxy-ethyl ester] in this work.
An IC50 of under 100 nM was found for `CNC(=O)C(C)(C)COc1c(-c2cccc3c2CCC3=O)ccc(OC)c1OC` [Compound 200, 3-[2,3-Dimethoxy-6-(1-oxo-indan-4-yl)-phenoxy]-2,2,N-trimethyl-propionamide] in this work.
An IC50 of under 100 nM was found for `CCNC(=O)C(C)(C)COc1c(-c2cccc3c2CCC3=O)ccc(OC)c1OC` [Compound 201, 3-[2,3-Dimethoxy-6-(1-oxo-indan-4-yl)-phenoxy]-N-ethyl-2,2-dimethyl-propionamide] in this work.
An IC50 of under 100 nM was found for `COc1ccc(-c2cccc3c2CCC3=O)c(OCC(C)(C)C(=O)N(C)C)c1OC` [Compound 202, 3-[2,3-Dimethoxy-6-(1-oxo-indan-4-yl)-phenoxy]-2,2,N,N-tetramethyl-propionamide] in this work.
An IC50 of under 100 nM was found for `COc1ccc(-c2cccc3c2CCC3=O)c(OCC(C)(C)C(=O)NC2CC2)c1OC` [Compound 203, N-Cyclopropyl-3-[2,3-dimethoxy-6-(1-oxo-indan-4-yl)-phenoxy]-2,2-dimethyl-propionamide] in this work.
An IC50 of under 100 nM was found for `COc1ccc(-c2cccc3c2CCC3=O)c(OCC(C)(C)C(=O)N2CCOCC2)c1OC` [Compound 204, 4-[2-(2,2-Dimethyl-3-morpholin-4-yl-3-oxo-propoxy)-3,4-dimethoxy-phenyl]-indan-1-one] in this work.
An IC50 of under 100 nM was found for `CNC(=O)C(C)(C)COc1c(-c2ccc3c(c2)CCC3=O)ccc(OC)c1OC` [Compound 206, 3-[2,3-Dimethoxy-6-(1-oxo-indan-5-yl)-phenoxy]-2,2,N-trimethyl-propionamide] in this work.
An IC50 of 100 to 500 nM was found for `COc1ccc(-c2ccc3c(c2)CCC3=O)c(OCC(C)(C)C(=O)N(C)C)c1OC` [Compound 207, 3-[2,3-Dimethoxy-6-(1-oxo-indan-5-yl)-phenoxy]-2,2,N,N-tetramethyl-propionamide] in this work.
An IC50 of at least 500 nM was found for `COc1ccc(-c2ccc3c(c2)CCC3=O)c(OCC(C)(C)C(=O)NC(C)C)c1OC` [Compound 208, 3-[2,3-Dimethoxy-6-(1-oxo-indan-5-yl)-phenoxy]-N-isopropyl-2,2-dimethyl-propionamide] in this work.
An IC50 of 100 to 500 nM was found for `CCCNC(=O)C(C)(C)COc1c(-c2ccc3c(c2)CCC3=O)ccc(OC)c1OC` [Compound 209, 3-[2,3-Dimethoxy-6-(1-oxo-indan-5-yl)-phenoxy]-2,2-dimethyl-N-propyl-propionamide] in this work.
An IC50 of under 100 nM was found for `CCNC(=O)OCC(C)(C)COc1c(-c2ccc3c(c2)COC3=O)ccc(OC)c1OC` [Compound 210, Ethyl-carbamic acid 3-[2,3-dimethoxy-6-(1-oxo-1,3-dihydro-isobenzofuran-5-yl)-phenoxy]-2,2-dimethyl-propyl Ester] in this work.
An IC50 of under 100 nM was found for `CCNC(=O)OCC(C)(C)COc1c(-c2cccc3c2CCC3=O)ccc(OC)c1OC` [Compound 211, Ethyl-carbamic acid 3-[2,3-dimethoxy-6-(1-oxo-indan-4-yl)-phenoxy]-2,2-dimethyl-propyl ester] in this work.
An IC50 of at least 500 nM was found for `CCNC(=O)OCC(C)(C)COc1c(-c2ccc3c(c2)CNC3=O)ccc(OC)c1OC` [Compound 212, Ethyl-carbamic acid 3-[2,3-dimethoxy-6-(1-oxo-2,3-dihydro-1H-isoindol-5-yl)-phenoxy]-2,2-dimethyl-propyl ester] in this work.
An IC50 of under 100 nM was found for `CCNC(=O)OCC1(COc2c(-c3ccc4c(c3)COC4=O)ccc(OC)c2OC)COC1` [Compound 213, Ethyl-carbamic acid 3-[2,3-dimethoxy-6-(1-oxo-1,3-dihydro-isobenzofuran-5-yl)-phenoxymethyl]-oxetan-3-ylmethyl ester] in this work.
An IC50 of at least 500 nM was found for `CCNC(=O)OCC1(COc2c(-c3ccc4c(c3)CNC4=O)ccc(OC)c2OC)COC1` [Compound 214, Ethyl-carbamic acid 3-[2,3-dimethoxy-6-(1-oxo-2,3-dihydro-1H-isoindol-5-yl)-phenoxymethyl]-oxetan-3-ylmethyl ester] in this work.
An IC50 of under 100 nM was found for `COCC1(COc2c(-c3ccc4c(c3)COC4=O)ccc(OC)c2OC)COC1` [Compound 215, 5-[3,4-Dimethoxy-2-(3-methoxymethyl-oxetan-3-ylmethoxy)-phenyl]-3H-isobenzofuran-1-one] in this work.
An IC50 of under 100 nM was found for `COCC1(COc2c(-c3ccc4c(c3)CNC4=O)ccc(OC)c2OC)COC1` [Compound 216, 5-[3,4-Dimethoxy-2-(3-methoxymethyl-oxetan-3-ylmethoxy)-phenyl]-2,3-dihydro-isoindol-1-one] in this work.
An IC50 of under 100 nM was found for `COCC(C)(C)COc1c(-c2cccc3c2CCC3=O)ccc(OC)c1OC` [Compound 217, 4-[3,4-Dimethoxy-2-(3-methoxy-2,2-dimethyl-propoxy)-phenyl]-indan-1-one] in this work.
An IC50 of under 100 nM was found for `COCC(C)(C)COc1c(-c2ccc3c(c2)COC3=O)ccc(OC)c1OC` [Compound 218, 5-[3,4-Dimethoxy-2-(3-methoxy-2,2-dimethyl-propoxy)-phenyl]-3H-isobenzofuran-1-one] in this work.
An IC50 of under 100 nM was found for `COCC(C)(C)COc1c(-c2ccc3c(c2)CNC3=O)ccc(OC)c1OC` [Compound 219, 5-[3,4-Dimethoxy-2-(3-methoxy-2,2-dimethyl-propoxy)-phenyl]-2,3-dihydro-isoindol-1-one] in this work.
